In the experiment the test system is S. pneumoniae serotype 3. The class given is in vivo, female Swiss-Webster mice. The settings on record: mouse.

For `CCCCc1nc2c(N)nc3cc(CCCN4CCN(C(=O)CCOCCOCCOCCOCCOCCOCCOCCOCCOCCOCCOCCOCCOCCOCCOCCOCCOCCOCCOCCOCCOCCOCCOCCOCCNC(=O)CCOCCOCCOCCOCCNC(=O)CCCOc5c(C)c(C)c6c(c5C)CC[C@@](C)(CCC[C@H](C)CCC[C@H](C)CCCC(C)C)O6)CC4)ccc3c2n1CC(C)(CO)CO` [Compound 2, N-{75-[4-(3-{4-amino-2-butyl-1-[3-hydroxy-2-(hydroxymethyl)-2-methylpropyl]-1H-imidazo[4,5-c]quinolin-7-yl}propyl)piperazin-1-yl]-75-oxo-3,6,9,12,15,18,21,24,27,30,33,36,39,42,45,48,51,54,57,60,63,66,69,72-tetracosaoxapentaheptacont-1-yl}-17-oxo-20-({(2R)-2,5,7,8-tetramethyl-2-[(4R,8R)-4,8,12-trimethyltridecyl]-3,4-dihydro-2H-chromen-6-yl}oxy)-4,7,10,13-tetraoxa-16-azaicosan-1-amide], the “OPA geometric mean titers (GMT)” value (0.1 μg S. pneumoniae serotype 3-CRM197 antigen with adjuvant (2 nmol; AlPO4 100 μg), IM weeks 0 and 3, sera week 5) was found to be 610. The “OPA geometric mean titers compared with reference adjuvants” value (S. pneumoniae serotype 3 antigen, versus aluminum phosphate and free TLR 7/8 agonist) is given as “higher average OPA geometric mean titers than aluminum phosphate, as well as the free TLR 7/8 agonist molecule”.

Source of the values: US20250135006A1, “AMPHIPHILIC TLR7/8 ADJUVANTS AND USES THEREOF” (Pfizer Inc., priority 2023, published 2025).
